The text below walks through data of patent US20090306160A1, “METHODS FOR IMPROVING DRUG DISPOSITION” (priority 2005, published 2009).

In data set [1] the target is MDR1 (Homo sapiens, UniProt P08183). As to the kind of experiment: ATPase assay, reconstituted membranes expressing high levels of MDR1. It is filed as biochemical. Particulars: for ATPase activity: MDR1 membranes. An excerpt: (§1) In this assay the ABC transporters remove substrates out of reconstituted cell membranes by using ATP hydrolysis as an energy source. ATP hydrolysis yields inorganic phosphate (Pi), which can be detected by a simple colorimetric reaction. The amount of Pi liberated by the transporter is proportional to the activity of the transporter. Membrane preparations containing ABC transporters show a baseline ATPase activity that varies for different transporters. Transported substrates increase this baseline ATPase activity. […] No activation of the MDR1 efflux could be observed.
Sequence of MDR1 (P08183 whole entry, species assumed): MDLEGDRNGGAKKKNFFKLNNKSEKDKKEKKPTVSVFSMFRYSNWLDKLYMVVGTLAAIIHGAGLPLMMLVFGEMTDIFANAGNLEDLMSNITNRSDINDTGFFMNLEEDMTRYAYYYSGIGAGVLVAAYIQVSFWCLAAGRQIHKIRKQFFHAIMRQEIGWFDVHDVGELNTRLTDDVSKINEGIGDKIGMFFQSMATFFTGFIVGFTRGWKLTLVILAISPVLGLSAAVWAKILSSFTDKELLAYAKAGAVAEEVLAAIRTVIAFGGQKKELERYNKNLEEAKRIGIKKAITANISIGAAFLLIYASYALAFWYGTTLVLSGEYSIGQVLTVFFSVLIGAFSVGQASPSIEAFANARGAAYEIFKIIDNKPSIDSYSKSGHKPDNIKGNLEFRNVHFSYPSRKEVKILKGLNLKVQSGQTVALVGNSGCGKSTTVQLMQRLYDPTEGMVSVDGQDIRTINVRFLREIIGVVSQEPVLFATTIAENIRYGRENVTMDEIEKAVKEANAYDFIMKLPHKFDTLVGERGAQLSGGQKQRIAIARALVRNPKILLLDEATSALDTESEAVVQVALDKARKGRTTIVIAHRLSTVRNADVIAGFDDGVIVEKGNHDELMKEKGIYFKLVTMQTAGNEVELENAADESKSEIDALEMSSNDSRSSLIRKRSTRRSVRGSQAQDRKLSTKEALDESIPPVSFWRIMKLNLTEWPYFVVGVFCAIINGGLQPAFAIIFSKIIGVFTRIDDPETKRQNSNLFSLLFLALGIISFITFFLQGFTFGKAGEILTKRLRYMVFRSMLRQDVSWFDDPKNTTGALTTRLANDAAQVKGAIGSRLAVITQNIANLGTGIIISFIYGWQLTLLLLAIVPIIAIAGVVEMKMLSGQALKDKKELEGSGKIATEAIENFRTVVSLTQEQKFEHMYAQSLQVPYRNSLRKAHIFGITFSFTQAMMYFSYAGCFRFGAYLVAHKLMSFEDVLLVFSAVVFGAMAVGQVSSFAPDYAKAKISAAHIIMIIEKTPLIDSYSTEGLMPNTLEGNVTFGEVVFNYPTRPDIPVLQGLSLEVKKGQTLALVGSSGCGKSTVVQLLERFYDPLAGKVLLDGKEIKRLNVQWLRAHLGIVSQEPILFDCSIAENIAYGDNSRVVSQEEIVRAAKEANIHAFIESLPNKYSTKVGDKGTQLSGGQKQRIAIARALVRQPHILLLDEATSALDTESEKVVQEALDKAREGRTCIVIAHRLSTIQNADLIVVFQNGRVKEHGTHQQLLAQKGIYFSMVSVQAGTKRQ

The target of data set [2] is T1, BCRP (Homo sapiens, UniProt Q9UNQ0).
T1 sequence (Q9UNQ0 1-655): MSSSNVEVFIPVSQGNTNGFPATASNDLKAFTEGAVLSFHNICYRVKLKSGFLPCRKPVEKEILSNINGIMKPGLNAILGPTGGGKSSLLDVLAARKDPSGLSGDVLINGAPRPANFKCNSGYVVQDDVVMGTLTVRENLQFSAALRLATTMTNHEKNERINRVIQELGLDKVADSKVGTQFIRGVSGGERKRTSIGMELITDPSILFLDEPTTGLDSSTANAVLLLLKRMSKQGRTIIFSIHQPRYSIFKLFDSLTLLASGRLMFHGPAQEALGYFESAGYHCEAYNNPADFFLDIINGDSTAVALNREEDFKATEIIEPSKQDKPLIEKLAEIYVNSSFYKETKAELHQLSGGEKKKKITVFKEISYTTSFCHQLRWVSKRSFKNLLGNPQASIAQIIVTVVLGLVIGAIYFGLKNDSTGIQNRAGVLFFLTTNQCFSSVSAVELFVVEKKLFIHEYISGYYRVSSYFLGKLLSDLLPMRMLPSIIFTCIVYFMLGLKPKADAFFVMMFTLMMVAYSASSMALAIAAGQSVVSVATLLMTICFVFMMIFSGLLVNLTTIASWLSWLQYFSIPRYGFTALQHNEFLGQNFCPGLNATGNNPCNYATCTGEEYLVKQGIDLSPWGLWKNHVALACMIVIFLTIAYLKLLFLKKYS
As to the kind of experiment: ATPase assay, reconstituted membranes expressing high levels of BCRP. It counts as biochemical.
Source text: as §1

For data set [3], the target named is T1, BCRP. As to the kind of experiment: Vesicular uptake assay of [3H]E1S in membrane vesicles over-expressing BCRP. It counts as biochemical. Particulars: [3H]E1S 0.5 μM, read-out: IC50, inhibition of [3H]E1S transport mediated by BCRP. The method, then: (§2) In this assay ATP-dependent uptake into membrane vesicles with inside-out orientation is determined. Interaction of Compound I with ABC transporters is measured indirectly by incubating the purified membrane vesicles with known radioactive probe substrates ([^3H]LTC4 [0.2 μM] for MRP2-LTC4 stands for Leutriene C4- and [^3H]E1S [0.5 μM] -E1S stands for […]—for BCRP) in the presence and absence (negative control) of different concentrations of Compound I or a well-known positive control compound (Benzbromanone for MRP2 and Sulphasalazine for BCRP). As illustrated herein (Tables 2 and 3), Compound I inhibits [^3H]E1S as well as [^3H]LTC4 transport mediated by BCRP (IC50≅1 μM) and MRP2 (IC50≅50 μM), respectively.

The target in data set [4] is T2, MRP2 (Homo sapiens, UniProt Q92887). The data set can be described thus: ATPase assay, reconstituted membranes expressing high levels of MRP2. It is filed as biochemical.
T2 sequence (Q92887 whole entry, species assumed): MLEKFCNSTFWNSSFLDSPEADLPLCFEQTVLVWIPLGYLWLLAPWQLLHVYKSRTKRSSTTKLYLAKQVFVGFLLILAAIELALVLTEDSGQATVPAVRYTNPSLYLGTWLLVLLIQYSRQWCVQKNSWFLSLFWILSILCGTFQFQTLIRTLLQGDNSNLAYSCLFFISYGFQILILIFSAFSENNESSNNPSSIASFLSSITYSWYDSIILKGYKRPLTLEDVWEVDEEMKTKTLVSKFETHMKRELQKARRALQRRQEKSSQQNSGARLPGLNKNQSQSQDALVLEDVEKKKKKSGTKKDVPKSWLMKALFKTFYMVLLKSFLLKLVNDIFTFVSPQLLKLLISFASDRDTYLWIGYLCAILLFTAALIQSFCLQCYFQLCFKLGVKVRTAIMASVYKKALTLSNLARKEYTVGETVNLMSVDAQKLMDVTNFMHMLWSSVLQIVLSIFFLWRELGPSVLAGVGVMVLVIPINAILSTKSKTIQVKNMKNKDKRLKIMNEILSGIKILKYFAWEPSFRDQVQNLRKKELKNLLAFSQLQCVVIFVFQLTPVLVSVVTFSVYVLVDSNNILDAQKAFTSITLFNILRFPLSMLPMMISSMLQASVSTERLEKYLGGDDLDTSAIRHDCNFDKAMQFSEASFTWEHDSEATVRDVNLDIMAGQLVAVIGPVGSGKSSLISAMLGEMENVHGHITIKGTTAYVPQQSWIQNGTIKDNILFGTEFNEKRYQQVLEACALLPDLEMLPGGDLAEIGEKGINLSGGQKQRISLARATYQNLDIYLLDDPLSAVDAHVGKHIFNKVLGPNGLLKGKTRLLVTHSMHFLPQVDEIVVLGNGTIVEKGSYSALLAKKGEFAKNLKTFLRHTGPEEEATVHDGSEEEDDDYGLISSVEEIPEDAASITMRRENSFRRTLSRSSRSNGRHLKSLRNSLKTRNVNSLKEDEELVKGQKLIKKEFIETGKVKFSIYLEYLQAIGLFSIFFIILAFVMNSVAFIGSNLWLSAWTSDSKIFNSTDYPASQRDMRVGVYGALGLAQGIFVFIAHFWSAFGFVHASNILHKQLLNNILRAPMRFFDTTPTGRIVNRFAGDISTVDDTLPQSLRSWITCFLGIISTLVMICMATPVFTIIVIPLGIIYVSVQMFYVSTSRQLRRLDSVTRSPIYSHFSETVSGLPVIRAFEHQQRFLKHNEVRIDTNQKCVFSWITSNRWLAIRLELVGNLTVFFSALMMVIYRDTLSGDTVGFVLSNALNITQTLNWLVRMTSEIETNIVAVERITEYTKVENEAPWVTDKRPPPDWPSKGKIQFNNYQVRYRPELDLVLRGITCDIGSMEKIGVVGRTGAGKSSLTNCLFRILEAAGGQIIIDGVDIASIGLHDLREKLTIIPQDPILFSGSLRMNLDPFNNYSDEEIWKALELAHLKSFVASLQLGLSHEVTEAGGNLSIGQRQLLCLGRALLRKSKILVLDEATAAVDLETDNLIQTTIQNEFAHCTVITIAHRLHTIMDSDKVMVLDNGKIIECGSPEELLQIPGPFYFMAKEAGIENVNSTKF
Source text: as §1

The target of data set [5] is T2, MRP2. As to the kind of experiment: Vesicular uptake assay of [3H]LTC4 in membrane vesicles over-expressing MRP2. It is filed as biochemical. Particulars: [3H]LTC4 0.2 μM; for Vesicular uptake, AMP activation / Vesicular uptake, ATP activation: MRP2 vesicles. The method, then:
as §2

Data set [6] can be described thus: Caco-2 bi-directional permeability assay. It is filed as in vitro ADME. Particulars: human, Caco-2. The method, then:
(§3) Alternatively, the in vitro transporter affinity of a drug substance can be determined and approximated by measuring the compound permeability across cells known to express ABC transporters, as e.g. the Caco-2 cell line. Interaction of Compound I with ABC transporter(s) is measured by determining the concentration-dependent compound transport across Caco-2 cell monolayers from the apical (AP) to basolateral (BL) as well as the basolateral to apical side.

Data set [7] deals with Caco-2 cell monolayers. The data set can be described thus: Caco-2 bi-directional permeability assay. It counts as in vitro ADME. As to conditions: Caco-2 cell monolayers. The method, then: as §3

As to `O=C(O)c1ccc(-n2nc(-c3ccccc3O)nc2-c2ccccc2O)cc1` [Compound I, 4-[3,5-bis(2-hydroxyphenyl)-[1,2,4]trizol-1-yl]benzoic acid], the ATPase activity is on record as 18.7 ± 0.6 nmol Pi/min/mg protein in data set [1] (Compound I 0.04 μM); 18.0 ± 0.7 nmol Pi/min/mg protein in data set [1] (Compound I 0.13 μM); 17.4 ± 1.3 nmol Pi/min/mg protein in data set [1] (Compound I 0.40 μM); 17.0 ± 1.0 nmol Pi/min/mg protein in data set [1] (Compound I 1.21 μM); 17.3 ± 0.3 nmol Pi/min/mg protein in data set [1] (Compound I 3.63 μM); 17.3 ± 0.5 nmol Pi/min/mg protein in data set [1] (Compound I 10.89 μM). In addition, the ATPase activity was determined as 17.3 ± 0.4 nmol Pi/min/mg protein in data set [1] (Compound I 32.67 μM); 16.7 ± 0.5 nmol Pi/min/mg protein in data set [1] (Compound I 98.0 μM); 32.9 ± 1.0 nmol Pi/min/mg protein in data set [2] (Compound I 0.04 μM); 35.5 ± 0.8 nmol Pi/min/mg protein in data set [2] (Compound I 0.13 μM); 34.2 ± 8.0 nmol Pi/min/mg protein in data set [2] (Compound I 0.40 μM); 49.4 ± 0.5 nmol Pi/min/mg protein in data set [2] (Compound I 1.21 μM). For the same compound, the ATPase activity is reported as 61.1 ± 0.3 nmol Pi/min/mg protein in data set [2] (Compound I 3.63 μM); 65.9 ± 0.1 nmol Pi/min/mg protein in data set [2] (Compound I 10.89 μM); 65.7 ± 0.5 nmol Pi/min/mg protein in data set [2] (Compound I 32.67 μM); 60.3 ± 1.6 nmol Pi/min/mg protein in data set [2] (Compound I 98.0 μM); 5.1 ± 0.6 nmol Pi/min/mg protein in data set [4] (Compound I 0.04 μM); 5.4 ± 0.3 nmol Pi/min/mg protein in data set [4] (Compound I 0.13 μM). Also, the ATPase activity was 5.4 ± 0.1 nmol Pi/min/mg protein in data set [4] (Compound I 0.40 μM); 5.1 ± 0.4 nmol Pi/min/mg protein in data set [4] (Compound I 1.21 μM); 5.0 ± 0.0 nmol Pi/min/mg protein in data set [4] (Compound I 3.63 μM); 5.2 ± 0.4 nmol Pi/min/mg protein in data set [4] (Compound I 10.89 μM); 6.3 ± 0.2 nmol Pi/min/mg protein in data set [4] (Compound I 32.67 μM); 8.3 ± 0.7 nmol Pi/min/mg protein in data set [4] (Compound I 98.0 μM). Also, the “activation of the MDR1 efflux (ATPase)” value in data set [1] (reconstituted membranes expressing high levels of MDR1) is “No activation”. The concentration for half-maximal inhibition (IC50) is roughly 1 µM in data set [3] and roughly 50 µM in data set [5] (membrane vesicles, read-out: IC50, inhibition of [3H]LTC4 transport mediated by MRP2). Also, the “Vesicular uptake, AMP activation” value in data set [5] (compound conc. 10 μM) came to 5.4 pmol/mg/min; in data set [5] (compound conc. 100 μM), 5.8 pmol/mg/min. Also, the “Vesicular uptake, ATP activation” value in data set [5] (compound conc. 10 μM) amounted to 25.6 pmol/mg/min; in data set [5] (compound conc. 100 μM), 11.5 pmol/mg/min. Also, in data set [6] (apical to basolateral, conc. 1 μM, read-out: Caco-2 permeability Papp(AP-BL) (converted)), the Papp A→B at 1 μM is 1 ×10⁻⁶ cm/s. Moreover, the Papp A→B at 5 μM in data set [6] (apical to basolateral, conc. 5 μM, read-out: Caco-2 permeability Papp(AP-BL) (converted)) was 7.67 ×10⁻⁶ cm/s. In addition, the Papp A→B at 10 μM in data set [6] (apical to basolateral, conc. 10 μM, read-out: Caco-2 permeability Papp(AP-BL) (converted)) is 11.6 ×10⁻⁶ cm/s. Moreover, the Papp A→B at 50 μM in data set [6] (apical to basolateral, conc. 50 μM, read-out: Caco-2 permeability Papp(AP-BL) (converted)) was 14.6 ×10⁻⁶ cm/s. Moreover, the Papp B→A at 1 μM in data set [6] (basolateral to apical, conc. 1 μM, read-out: Caco-2 permeability Papp(BL-AP) (converted)) is 15.5 ×10⁻⁶ cm/s. Further, the Papp B→A at 5 μM in data set [6] (basolateral to apical, conc. 5 μM, read-out: Caco-2 permeability Papp(BL-AP) (converted)) is 23.8 ×10⁻⁶ cm/s. In addition, the Papp B→A at 10 μM in data set [6] (basolateral to apical, conc. 10 μM, read-out: Caco-2 permeability Papp(BL-AP) (converted)) is 22.2 ×10⁻⁶ cm/s. Moreover, the Papp B→A at 50 μM in data set [6] (basolateral to apical, conc. 50 μM, read-out: Caco-2 permeability Papp(BL-AP) (converted)) was 21.5 ×10⁻⁶ cm/s. Besides, in data set [7], the “concentration at which bi-directional permeability values converge (complete efflux transporter saturation)” value was “about 50 μM”. Besides, in data set [7] (AP-BL vs BL-AP transport), the efflux substrate identification result is given as “substrate for one or several prominent efflux system(s)”. For the same compound, in data set [7] (bi-directional transport, read-out: apparent Km of efflux transport), the Km was roughly 5 µM.
With `CCCCc1oc2ccccc2c1C(=O)c1cc(Br)c(O)c(Br)c1` [Benzbromanone, reference compound], in data set [5] (positive control conc. 3000 μM), the “Vesicular uptake, AMP activation” value is 11.1 pmol/mg/min and the “Vesicular uptake, ATP activation” value was 10.8 pmol/mg/min.
